According to patent US20210361638A1, “FXR AGONISTS FOR THE TREATMENT OF LIVER DISEASES” (NOVARTIS AG, priority 2017, published 2021):
“Also recorded” adds a separate entry of the source.

Experiments:
NASH subjects = settings: FLINT trial; placebo-treated patients 6%; cited from earlier work
FGR5 = FGR5 effects (specificity)
[1] = tested on: ANIT-induced cholestatic rats; assay: ANIT-induced cholestasis rat model; assay type: in vivo, Sprague-Dawley (SD) rats
Protocol: Experimental protocols were approved by the local Animal Care and Use Committee and were in compliance with Animal Welfare Act regulations and US regulation (Guide for the Care and Use of Laboratory Animals). […] . The tropifexor-treated rats were sacrificed at 1 and 7 h (n=3/time point) and OCA-treated rats were sacrificed at 1, 3, and 7 h (n=3/time point) after the final dose on day 14 for analysis of target gene expression and serum biomarkers. […] .

NASH mice = assay: Diet-induced (AMLN diet) insulin-resistant NASH mouse model; assay type: in vivo, C57B16 mice
Source text: A separate model for diet-induced NASH was developed as described by Trevaskis et al. Male C57B16 mice aged […] were maintained on a high fat (40% kcal; Primex), high fructose (22% by weight), and high cholesterol (2% by weight) diet (Research Diets Inc., New Brunswick, N.J. cat. no. D09100301) for 26 weeks to induce NASH. Control animals received low-fat diet (10% kcal) with no fructose or cholesterol (Research Diets, cat. no. D09100304). […] . Expression of collagen, type I, alpha 1 (Col1a1) and tissue inhibitor of metalloproteinase 1 (Timp1) genes was analyzed by real time quantitative PCR.

[2] = Exposure and exploratory exposure-response analysis in NASH patients; assay type: in vivo, human
FGF19 = assay: Pharmacodynamic marker FGF19 with increasing doses; assay type: in vivo; settings: increasing doses up to 3000 μg
STAM mice = assay: STAM mouse model of NASH; settings: for NAFLD activity score (NAS): doses 0.1 and 0.3 mg/kg, qd orally weeks 9-12; for Sirius Red-positive areas (pericellular fibrosis): tropifexor 0.03, 0.1, 0.3 mg/kg; for liver triglycerides: tropifexor qd orally weeks 9-12
Protocol: Further experiments in the STAM model were performed: 2-day old male C57Bl/6J mice were injected with streptozotocin and placed on a high-fat diet (HFD) from weeks 4-12 (HFD-32; CLEA-Japan, Tokyo, Japan). […] Hematoxylin & eosin (H&E)-stained sections were evaluated for nonalcoholic fatty liver disease (NAFLD) activity score (NAS) according to previously defined criteria.
Liver sections were fixed in 4% paraformaldehyde for 48 h and shipped for histopathological analysis.

dogs = assay: Oral gavage toxicity studies in dogs for up to 39 weeks

CC[C@H]1[C@@H](O)[C@@H]2[C@H](CC[C@]3(C)[C@@H]([C@H](C)CCC(=O)O)CC[C@@H]23)[C@@]2(C)CC[C@@H](O)C[C@@H]12 [OCA, 6α-ethyl-chenodeoxycholic acid]
patients with pruritus (NASH subjects): 23%

O=C(O)c1cc(F)c2nc(N3C4CC[C@H]3C[C@H](OCc3c(-c5ccccc5OC(F)(F)F)noc3C3CC3)C4)sc2c1 [tropifexor, 2-[(1R,3r,5S)-3-({5-cyclopropyl-3-[2-(trifluoromethoxy)phenyl]-1,2-oxazol-4-yl}methoxy)-8-azabicyclo[3.2.1]octan-8-yl]-4-fluoro-1,3-benzothiazole-6-carboxylic acid]
FGR5 effects (FGR5): no FGR5 effects
quantitation of collagen deposition (fibrosis) ([1]; FIG. 1D, vs vehicle-treated ANIT livers): significantly decreased
serum biochemistry parameters, liver damage, and fibrosis ([1]; FIG. 1 legend): improves
collagen deposition and liver fibrosis ([1]; chronic ANIT treatment, FIG. 1C): highly reduced
AST, ALT, total BAs, total bilirubin, and GGT levels ([1]; doses as low as 0.3 mg/kg, oral qd 5 days, vs vehicle-treated ANIT rats): marked reduction
reduction of cholestatic disease markers, comparison with OCA ([1]; rat, in vivo): more effective than OCA
liver histology: necrosis of the bile duct epithelium, bile duct hyperplasia, inflammatory cell infiltrates ([1]; vs vehicle-treated cholestatic rats, 0.03, 0.3, 1 mg/kg): dose-dependent improvement
hepatic crown-like structures (NASH mice; mid- and high dose tropifexor): completely eliminated
ALT and AST levels (NASH mice; mid-dose level): normalized
collagen deposition in liver (fibrosis), Trichrome staining (NASH mice; mouse, in vivo): strongly abrogates; also recorded: reverses
steatosis by quantification of liver triglycerides (NASH mice; mouse, in vivo): Dose-dependent reduction
mRNA levels of fibrogenic markers Col1a1 and TIMP1 (NASH mice; real time quantitative PCR): dramatically reduced
ALT and AST (NASH mice; relative to vehicle-treated controls, 4 weeks qd orally): dose-dependent reduction
liver inflammation, steatosis, and fibrosis (NASH mice; therapeutic mode): resolved
predicted exposure in NASH patients ([2]; 200 μg daily): approximately 80 ng·hr/ml
exposure level in NASH patients ([2]; at 200 μg): 0.08 µg·h/mL
pharmacodynamic marker FGF19 (FGF19): continues to rise
Plasma cholesterol levels (STAM mice; FIG. 2 legend): significantly reduced
NAFLD activity score (NAS) (STAM mice): significantly reduced
NAFLD activity score (NAS) (STAM mice; listed as LJN452): significant decrease
fibrosis area in comparison with baseline group (STAM mice; mouse, in vivo): decreased
resolution of the NASH phenotype, comparison with OCA (STAM mice; mouse, in vivo): more effectively than OCA
Sirius Red-positive areas (pericellular fibrosis) (STAM mice): significantly reduced
Sirius Red-positive areas (pericellular fibrosis) (STAM mice; listed as Tropifexor): statistically significant dose-dependent reduction
liver triglycerides (STAM mice): significantly reduced
liver triglycerides (STAM mice; listed as LJN452): reduction
Mean AUC0-24 h at which hepatocellular hypertrophy was adverse (dogs; females): 0.507 µg·h/mL
Mean AUC0-24 h at which hepatocellular hypertrophy was adverse (dogs; males): 0.898 µg·h/mL
